The source of these data is patent US20210292265A1, “CHALCONES AND DERIVATIVES FOR USE IN MEDICAMENTS AND NUTRACEUTICALS” (HLXTH B.V., priority 2018, published 2021).

Each structure is given as a SMILES string.

The subject of test [1] is inflammasome induced IL-1β production. The test is described as follows: IL-1β secretion (ELISA) in LPS/ATP stimulated, PMA differentiated THP-1 cells. Particulars: for IC50: Homo sapiens, LPS (2 ng/ml, 4h) plus ATP (5 mM, 5 min), 1 hour pre-treatment, read-out: IC50 of inhibition of IL-1β secretion. The format is cell-based. The method, then:
(§1) Evaluation of the effect of test compounds on inflammasome induced IL-1β or IL-18 generation and mTOR or caspase-1 activity was performed using PMA-differentiated THP-1 cells stimulated with LPS (2 ng/ml, 4h (LPS (sigma, cat #L3012)) plus ATP (5 mM, 5 min. (Sigma, cat #A1852)). PMA-differentiated THP-1 cells untreated with LPS/ATP were used as control. PMA (phorbol 12-myristate 13-acetate) stimulation was done by adding 150 nM PMA to the cell culture for 24 hours. followed by 24 hours of incubation in culture medium and removal of non-adherent cells.
(§2) The supernatant was collected immediately after experimental procedures for measurement of IL-1β ELISA (R&D Systems, cat #DY201) or IL-18 ELISA (R&D Systems, cat #7620) levels.
(§3) PMA-differentiated THP-1 cells, 1.5×10^5 cells/well, 96-well format
(§4) 1. Pre-treatment for 1 hour with experimental compounds. 2. LPS stimulation (2 ng/mL) for 4h of all conditions except unstimulated (LPS/ATP unstimulated) cells 3. ATP (5 mM) stimulation for 5 minutes of all conditions except unstimulated (LPS/ATP unstimulated) cells 4. Material collection: Supernatant and cell lysates (snap frozen, stored at −80° C.)
(ELISA stands for enzyme-linked immunosorbent assay.)

Test [2] deals with inflammasome induced IL-18 production. The test is described as follows: IL-18 secretion (ELISA) in LPS/ATP stimulated, PMA differentiated THP-1 cells. It counts as cell-based. Particulars: dose dependent. As to the method: as §1, §2, §3, §4
In another test the target is T1, mTOR (Homo sapiens, UniProt P42345).
T1 construct: PMA-differentiated THP-1 cells, 1.5×10^5 cells/well, 96-well format; endogenous in cells; host or cells: PMA-differentiated THP-1 cells
The test is described as follows: mTOR activity by phospho p70 S6K (Thr389) ELISA in PMA differentiated THP-1 cells. The format is cell-based. Particulars: LPS/ATP stimulated and PMA differentiated THP-1 cells; read-out: IC50 of mTOR inhibition (phospho p70 S6K). The method, then: as §1
(§5) The cell lysates were collected accordingly the manufacturer's instructions for analysis of phospho p70 S6K (Thr389) (eBioscience, cat #85-86052) levels by ELISA, to determine the mTOR activity or to determine caspase-1 (R&D Systems cat #AF6215) levels by Western blot. As secondary antibody for the Western blot a HRP-conjugated anti-IG antibody (R&D Systems cat #HAF017) was used and immunoreactive bands were visualized by the Enhanced Chemiluminescence method (Thermo Scientific, Rockford, Ill.). All assays were performed accordingly to the respective manufacturers instructions.
as §3
1. Pre-treatment for 1 hour with experimental compounds. 2. LPS stimulation (2 ng/mL) for 4h of all conditions except unstimulated (LPS/ATP unstimulated) cells 3. […]

Test [3] has as its system inflammasome induced caspase-1 production. The test is described as follows: Caspase-1 levels by Western blot in LPS/ATP stimulated, PMA differentiated THP-1 cells. It counts as cell-based. As to the method:
as §1, §5
1. Pre-treatment for 1 hour with experimental compounds. 2. […]
LPS/ATP stimulated, PMA differentiated THP-1 cells were incubated with a compound of formula I and caspase-I formation was analyzed and compared to a control without the compound.
(A western blot detects proteins with antibodies after separation by electrophoresis.)

A further test concerns MCAO rats. Particulars: pretreatment once a day for 7 days, 2 h MCAO, 22 h reperfusion; cited from earlier work.
For test [4], the system named is 1K/DOCA/salt-treated mice. Particulars: cited from earlier work.
The test system of test [5] is myocardial ischemia reperfusion injury (MI/RI) rats. Particulars: I/R rats, 2.5, 5 and 10 mg/kg, 30 min occlusion, 2 h reperfusion; cited from earlier work.

With `O=C(/C=C/c1ccccc1O)c1ccc(O)cc1O` [2,2′,4′-trihydroxychalcone], the values for the IC50 (in test [1]; at mTOR) were 6.1 µM and 98.8 µM, respectively. The “effect on secretion of IL-18” value in test [2] is “inhibits the secretion of IL-18”. Further, the “effect on caspase-1 production” value in test [3] was “inhibits caspase-1 production”.

Take `O=C(/C=C/c1ccc(O)cc1)c1ccc(O)cc1O` [Isoliquiritigenin]: the IC50 (in general, the concentration that inhibits the measured activity by half) in test [1] turned out to be 11.9 µM; at mTOR, 174 µM. For the same compound, the “cerebral infarct volume and edema” value with MCAO rats is listed as “significantly reduced”.

As for `CC(C)(O)c1coc(S(=O)(=O)NC(=O)Nc2c3c(cc4c2CCC4)CCC3)c1` [MCC950], the effect on hypertension entry in test [4] is “reversed hypertension”.

Turning to `CO[C@H]1C[C@@H]2CC[C@@H](C)[C@@](O)(O2)C(=O)C(=O)N2CCCC[C@H]2C(=O)O[C@H]([C@H](C)C[C@@H]2CC[C@@H](O)[C@H](OC)C2)CC(=O)[C@H](C)/C=C(\C)[C@@H](O)[C@@H](OC)C(=O)[C@H](C)C[C@H](C)/C=C/C=C/C=C/1C` [Rapamycin], in test [1] (LPS/ATP stimulated, Rapamycin 25, 50 and 100 nM), the “effect on production of IL-1β” value is recorded as “no effect”.

Turning to `Oc1ccc(/C=C/c2cc(O)cc(O)c2)cc1` [Resveratrol, resveratrol], the IC50 in test [1] worked out at 87.3 µM. Besides, in test [5], the “infarct volume and myocardial fibrosis” value is “significantly reduced”.
